Test results: patent US12616806B2, “Nasal administration” (OptiNose Inc., priority 2013, dated 2026)

Columns and labels:
[1] = system: chronic rhinosinusitis (CRS) with nasal polyps; assay: Example #12: placebo controlled study in chronic rhinosinusitis with nasal polyps; type: in vivo, human; conditions: after 12 weeks
[2] = system: episodic migraine; conditions: continuous carbon dioxide infusion; cited from earlier work
[3] = cited from earlier work

C[C@@H]1C[C@H]2[C@@H]3C[C@H](F)C4=CC(=O)C=C[C@]4(C)[C@@]3(F)[C@@H](O)C[C@]2(C)[C@@]1(O)C(=O)SCF [fluticasone]
change in summed polyp score [1]: −0.98

O=C=O [carbon dioxide]
two-hour pain free response [2]: 25.0% | dips in mucosal pH ([3]; 5 L/min carbon dioxide in concentrations of 15% and 45%): 0.1-0.2 pH units | decrease of extracellular nasal mucosal pH ([3]; 5 L/min, 3 s duration, 20% carbon dioxide, basal ~7.4): 0.05-0.1 pH units
